Measurements taken from patent US9320272B2, “Microbial composition” (Rohm and Haas Company, priority 2011, dated 2016).
“And” between values parts separate entries of the source, which are not always exact repeats. Identical values can stand only once.

Experiments:
[1] = tested on: Escherichia coli (E. coli - ATCC #10536); assay: Automated assessment of efficacy in surfactant base (2.85% sodium cocoyl glycinate + 1.85% sodium lauroamphoacetate, pH 10), 15 seconds exposure; format: cell-based; details: for MBC (% w/v): in 2.85% sodium cocoyl glycinate + 1.85% sodium lauroamphoacetate solution at pH 10, E. coli, 15 seconds exposure; for Δ OD 450 nm = OD450 (time zero) − OD450 (time = 16 hours), Mean / Δ OD 590 nm OD590 (time = 16 hours) − OD590 (time zero), Mean / No. of replicates showing growth (out of 4): model surfactant solution pH 10, 15 s exposure; for Δ OD 450 nm = OD450 (time zero) − OD450 (time = 16 hours), Mean / Δ OD 590 nm OD590 (time = 16 hours) − OD590 (time zero), Mean: 4 replicates
Protocol: In these examples, the efficacy of combinations of actives were tested in a surfactant cleansing formulation comprising 2.85% sodium cocoyl glycinate and 1.85% sodium lauroamphoacetate.
This corresponds to a 50% in use dilution with water of a neat formulation containing 5.7% cocoyl glycinate and 3.7% sodium lauroamphoacetate during hand washing.
Solutions were prepared such that the concentrations of the surfactant components and test actives were 1.1× the final desired concentration in order to allow for dilution with the bacterial inoculum in the test. The solutions were manually adjusted to pH 10.0 by dropwise addition of sodium hydroxide solution, as measured with a pH meter at ambient temperature.
The efficacy of the combinations of the present invention was determined against Escherichia coli (E. coli—ATCC #10536), at a concentration of approximately 1×10^8 bacteria per mL.
Tests were conducted using standard microliter plate assays using an automated liquid handling system. 270 μl of the surfactant test solution was pipetted into each well of the microtitre plate and 30 μl of the bacterial suspension was then added. After exactly 15 seconds of bacterial exposure, a 30 μl volume of bacterial cells was withdrawn and transferred to 270 μl of D/E quench solution. After 5 minutes in the D/E quench, the optical density (OD) was measured for each plate in turn at two specific wavelengths (450 nm and 590 nm). These provide a dual check of antimicrobial activity, as the OD450 reading is specific for the yellow colour of D/E quench when bacterial growth is observed, whereas OD590 is specific for the initial purple colour of the D/E quench which is retained if no bacterial growth is observed. After the time zero OD measurements, plates were then incubated at 37° C. overnight (16 hours) before repeating the OD measurements. Delta CD values were calculated by subtracting […] the initial value at time zero. Bacterial growth is observed as an increase in OD450 and a decrease in ΔOD590. To identify antibacterially efficacious systems (those preventing appreciable bacterial growth after incubation), the following threshold changes in OD readings have been adopted: if (1), OD450 increases by less than 0.2 absorbance unit on incubation and (2), OD590 decreases by less than 0.35 unit on incubation. Conversely, where OD450 increases by more than 0.2 AU and OD590 decreases by more than 0.35 unit after incubation, corresponding to a colour shift from purple to yellow, the test system allows bacterial growth and is not deemed efficacious. Four replicate measurements in the same plate have been made for each test system. The number of replicate wells showing either bacterial growth or no growth is also readily assessed by eye by following the colour change.
Dose responses for individual components and binary mixtures of actives at a fixed concentration ratio were generated by sequential dilution of liquors with further surfactant solution to obtain a series of endpoints.
In some selected cases, the combinations were also tested at the weight ratio 1.1.

[2] = tested on: Escherichia coli (E. coli - ATCC #10536); assay: Synergy test: high resolution MBC microtiter plate assay in phosphate buffer containing 35% dipropylene glycol, 15 seconds contact; format: cell-based; details: for QB: concentration of second component (B) acting alone which produced an end point (MBC of Compound B); Qb with Qa = 0 / QA: concentration of first component (A) acting alone which produced an end point (MBC of Compound A); Qa with Qb = 0: E. coli 10536, complete kill in 15 seconds, phosphate buffer with 35% DPG; for SI (Synergy Index = Qa/QA + Qb/QB): E. coli 10536, less than one = synergy, one = additivity, greater than one = antagonism
Source text: One measure of synergy is the industrially accepted method described by Kull, F. C.; Eisman, P. C.; Sylwestrowicz, M. D, and Mayer, R. L., in Applied Microbiology 9:538-541 (1961), using the ratio determined by the formula: Qa/QA+Qb/QB=Synergy Index (“SI”) wherein; QA=concentration of compound A (first component) in percent, acting alone, which produced an end point (MBC of Compound A), Qa=concentration of compound A in percent, in the mixture, which produced an end point. QB=concentration of compound B (second component) in percent, acting alone, which produced an end point (MBC of Compound B). Qb=concentration of compound B in percent, in the mixture, which produced an end point.
When the sum of Qa/QA and Qb/QB is greater than one, antagonism is indicated. […] The lower the SI, the greater is the synergy shown by that particular mixture. The minimum biocidal concentration (MBC) of a microbicide is the lowest concentration tested under a specific set of conditions that provides complete kill of the tested microorganisms.
Synergy tests were conducted using standard microliter plate assays with phosphate buffer containing 35% dipropylene glycol (DPG). In this method, a wide range of combinations of chemicals was tested by conducting high resolution. MBC assays of Component (A) in the presence of various concentrations of Component (B). High resolution MBCs were determined by adding varying amounts of microbicide to one column of a microliter plate and doing subsequent […] dilutions using an automated liquid handling system to obtain a series of closely spaced endpoints. The MBC plate was inoculated one column at a time with the test microorganism. An aliquot of the inoculated well was transferred at 15 seconds to a plate containing a neutralizing agent (EVE Neutralizing Broth), mixed and held for 5 minutes before being transferred to a growth plate containing trypticase soy broth (TSB). The TSB plate was incubated at 37° C. and read for the presence/absence of growth at 24 hours. The lowest level tested that provided complete kill (as evidenced by no growth in the microtitre plate) of the test organisms in 15 seconds is the minimum biocidal concentration (MBC).
The synergy of the combinations of the present invention was determined against a bacterium, Escherichia coli (E. coli—ATCC #10536), at a concentration of approximately 1×10^8 bacteria per mL. This microorganism is representative of natural contaminants in many consumer and industrial applications.

## C=CC(C)(O)CCC=C(C)C (racemic) [3,7-dimethylocta-1,6-dien-3-ol]
[1]
  MBC (% w/v): >0.5 % w/v
[1]; single active at 0.2% w/v
  Δ OD 450 nm = OD450 (time zero) − OD450 (time = 16 hours), Mean: −0.53
  Δ OD 590 nm OD590 (time = 16 hours) − OD590 (time zero), Mean: 0.60
[1]; single active at 0.5% w/v
  Δ OD 450 nm = OD450 (time zero) − OD450 (time = 16 hours), Mean: −0.30
  Δ OD 590 nm OD590 (time = 16 hours) − OD590 (time zero), Mean: 0.50
[2]
  QB: concentration of second component (B) acting alone which produced an end point (MBC of Compound B); Qb with Qa = 0: 0.5 weight %
  SI (Synergy Index = Qa/QA + Qb/QB): 1.0

## Oc1ccccc1C1CCCC1 [2-cyclopentylphenol]
[1]
  MBC (% w/v): >0.2 % w/v
[2]
  QA: concentration of first component (A) acting alone which produced an end point (MBC of Compound A); Qa with Qb = 0: 0.2 weight % and 0.6 weight % and 0.3 weight %
  SI (Synergy Index = Qa/QA + Qb/QB): 1.00

## Oc1ccccc1Cc1ccccc1 [2-hydroxydiphenylmethane]
[1]
  MBC (% w/v): >0.2 % w/v
[1]; single active at 0.1% w/v
  No. of replicates showing growth (out of 4): 4
  Δ OD 450 nm = OD450 (time zero) − OD450 (time = 16 hours), Mean: −0.51
  Δ OD 590 nm OD590 (time = 16 hours) − OD590 (time zero), Mean: 0.62
[1]; single active at 0.2% w/v
  No. of replicates showing growth (out of 4): 4
  Δ OD 450 nm = OD450 (time zero) − OD450 (time = 16 hours), Mean: −0.51
  Δ OD 590 nm OD590 (time = 16 hours) − OD590 (time zero), Mean: 0.63
[1]; single active at […] w/v
  No. of replicates showing growth (out of 4): 4
  Δ OD 450 nm = OD450 (time zero) − OD450 (time = 16 hours), Mean: −0.49
  Δ OD 590 nm OD590 (time = 16 hours) − OD590 (time zero), Mean: 0.64
[2]
  QA: concentration of first component (A) acting alone which produced an end point (MBC of Compound A); Qa with Qb = 0: 0.8 weight % and 1.0 weight % and 0.6 weight %
  SI (Synergy Index = Qa/QA + Qb/QB): 1.00

## Cc1ccc(C(C)C)c(O)c1O [3-isopropyl-6-methylbenzene-1,2-diol]
[2]
  QA: concentration of first component (A) acting alone which produced an end point (MBC of Compound A); Qa with Qb = 0: 0.8 weight % and 1.0 weight %
  SI (Synergy Index = Qa/QA + Qb/QB): 1.00

## Cc1cc(O)c(C(C)C)cc1Cl [4-chloro-2-isopropyl-5-methylphenol, reference compound]
[1]
  MBC (% w/v): >0.2 % w/v

## Cc1cc(O)cc(C)c1Cl [4-chloro-3,5-dimethylphenol]
[1]
  MBC (% w/v): >0.2 % w/v
[2]
  QA: concentration of first component (A) acting alone which produced an end point (MBC of Compound A); Qa with Qb = 0: 0.6 weight % and 0.3 weight %
  SI (Synergy Index = Qa/QA + Qb/QB): 1.00

## Oc1ccc(C2CCCC2)cc1 [4-cyclopentylphenol]
[1]
  MBC (% w/v): >0.2 % w/v
[2]
  QA: concentration of first component (A) acting alone which produced an end point (MBC of Compound A); Qa with Qb = 0: 0.2 weight %
  SI (Synergy Index = Qa/QA + Qb/QB): 1.00

## Oc1ccc(Cc2ccccc2)cc1 [4-hydroxydiphenylmethane]
[1]
  MBC (% w/v): >0.2 % w/v
[1]; single active at 0.1% w/v
  No. of replicates showing growth (out of 4): 4
  Δ OD 450 nm = OD450 (time zero) − OD450 (time = 16 hours), Mean: −0.58
  Δ OD 590 nm OD590 (time = 16 hours) − OD590 (time zero), Mean: 0.52
[1]; single active at 0.2% w/v
  No. of replicates showing growth (out of 4): 4
  Δ OD 450 nm = OD450 (time zero) − OD450 (time = 16 hours), Mean: −0.52
  Δ OD 590 nm OD590 (time = 16 hours) − OD590 (time zero), Mean: 0.61
[1]; single active at […] w/v
  No. of replicates showing growth (out of 4): 4
  Δ OD 450 nm = OD450 (time zero) − OD450 (time = 16 hours), Mean: −0.55
  Δ OD 590 nm OD590 (time = 16 hours) − OD590 (time zero), Mean: 0.54
[2]
  QA: concentration of first component (A) acting alone which produced an end point (MBC of Compound A); Qa with Qb = 0: 0.6 weight % and 0.5 weight %
  SI (Synergy Index = Qa/QA + Qb/QB): 1.00

## CC(C)(C)c1ccc(O)c(O)c1 [4-tert-butylbenzene-1,2-diol]
[2]
  QA: concentration of first component (A) acting alone which produced an end point (MBC of Compound A); Qa with Qb = 0: 0.8 weight % and 1.0 weight %
  SI (Synergy Index = Qa/QA + Qb/QB): 1.00

## Oc1cccc2c1CCCC2 [5,6,7,8-tetrahydronaphthalen-1-ol]
[1]
  MBC (% w/v): >0.2 % w/v
[2]
  QA: concentration of first component (A) acting alone which produced an end point (MBC of Compound A); Qa with Qb = 0: 0.6 weight % and 0.5 weight %
  SI (Synergy Index = Qa/QA + Qb/QB): 1.00

## Oc1ccc2c(c1)CCCC2 [5,6,7,8-tetrahydronaphthalen-2-ol]
[1]
  MBC (% w/v): >0.2 % w/v
[1]; single active at […] w/v
  No. of replicates showing growth (out of 4): 4
  Δ OD 450 nm = OD450 (time zero) − OD450 (time = 16 hours), Mean: −1.59
  Δ OD 590 nm OD590 (time = 16 hours) − OD590 (time zero), Mean: 0.30
[2]
  QA: concentration of first component (A) acting alone which produced an end point (MBC of Compound A); Qa with Qb = 0: 0.6 weight % and 0.3 weight % and 0.5 weight %
  SI (Synergy Index = Qa/QA + Qb/QB): 1.00

## CC(C)=CCC/C(C)=C/CO [(E)-3,7-dimethylocta-2,6-dien-1-ol]
[1]
  MBC (% w/v): >0.5 % w/v
[1]; single active at 0.3% w/v
  No. of replicates showing growth (out of 4): 4
  Δ OD 450 nm = OD450 (time zero) − OD450 (time = 16 hours), Mean: −0.51
  Δ OD 590 nm OD590 (time = 16 hours) − OD590 (time zero), Mean: 0.59
[1]; single active at 0.5% w/v
  No. of replicates showing growth (out of 4): 4
  Δ OD 450 nm = OD450 (time zero) − OD450 (time = 16 hours), Mean: −0.45
  Δ OD 590 nm OD590 (time = 16 hours) − OD590 (time zero), Mean: 0.62
[1]; single active at […] w/v
  No. of replicates showing growth (out of 4): 4
[2]
  QB: concentration of second component (B) acting alone which produced an end point (MBC of Compound B); Qb with Qa = 0: 0.3 weight % and 0.2 weight %

## CC(C)=CCC/C(C)=C\CO [cis-3,7-dimethyl-2,6-octadien-1-ol]
[1]
  MBC (% w/v): >0.5 % w/v
[1]; single active at 0.2% w/v
  Δ OD 450 nm = OD450 (time zero) − OD450 (time = 16 hours), Mean: −0.53
  Δ OD 590 nm OD590 (time = 16 hours) − OD590 (time zero), Mean: 0.60
[1]; single active at 0.5% w/v
  Δ OD 450 nm = OD450 (time zero) − OD450 (time = 16 hours), Mean: −0.14
  Δ OD 590 nm OD590 (time = 16 hours) − OD590 (time zero), Mean: 0.40
[1]; single active at […] w/v
  No. of replicates showing growth (out of 4): 4
  Δ OD 590 nm OD590 (time = 16 hours) − OD590 (time zero), Mean: 0.61
[2]
  QB: concentration of second component (B) acting alone which produced an end point (MBC of Compound B); Qb with Qa = 0: 0.5 weight % and 0.25 weight %
